The subject of series [1] is M2-induced THP-1 macrophages. Put plainly: Secreted CCL18 and IL-1β in THP-1 macrophage supernatants by ELISA. As to conditions: ELISA, low concentration range (0.1-10 nM). It is filed as cell-based, human. The method, then:
FIGS. 6A-6D show graphical data representative of various marker levels measured from M2-induced THP-1 macrophages treated with different concentrations of drugs for 48 hours (FIGS. 6A and 6B) or for 2 hours, then displaced with fresh medium and cultured for the remaining 46 hours (FIGS. 6C and 6D). In both cases, cell supernatants were collected and secreted CCL18 protein and IL-1β was detected by ELISA.
CCL18 and IL-1β were quantified in induced THP-1 cell supernatants using a human DuoSet ELISA Development System (R&D Systems Europe, Abingdon, UK; #DY394-05) and an IL-1 beta Human ELISA Kit (Thermo Fisher Scientific, Waltham, MA; #BMS224-2) as described by manufactures. BALF samples were analyzed for mouse IFN-γ using ELISA MAX™ Deluxe (Biolegend, San Diego, CA; #430804).
For orientation: In an ELISA, binding on a coated surface is turned into a signal by an enzyme label.

In series [2] the test system is IL-4, IL-6 plus IL-13 stimulated THP-1 cells (M2-like macrophages). Put plainly: Reprogramming of M2-polarized THP-1 macrophages, marker mRNA by qPCR. It is filed as cell-based, human. The following applies: 2 hours; for CCL18 relative expression / CD206 relative expression / IL-1β relative expression: different nM concentrations, qPCR. The method, then:
THP-1 cells were initially selected as a model system because this human monocytic cell line is known to acquire an M2-like phenotype and produce significant quantities of anti-inflammatory cytokines upon stimulation with IL-4, IL-6 plus IL-13.
THP-1 cells were seeded into 96-well plates at a density of 60,000 cells/well. Cells were differentiated into unpolarized macrophages by 48 hours incubation with 200 nM PMA followed by 24 hours incubation in fresh RPMI medium. […] Cultures were maintained at 37° C. in a humidified 5% CO2 incubator.
Total RNA was isolated from 1×10^5-2×10^5 macrophages using a Quick-RNATM MicroPrep kit (Zymo Research, Irvine, CA) according to the manufacturer-recommended protocol. […] IL-6, CXCL10, IFNα, IFN-γ and CD86 were used as markers for an M1 phenotype, while CCL18, CD206, CD163 and Arg1 were employed as markers for the M2 phenotype. IL-1β, PDGFβ, MMP9 and TIMP 3 were measured as indicators of an anti-inflammatory phenotype. IRAK-4 was used as an indicator of TLR7 stimulation. To control for specificity of the amplification products, a melting curve analysis was performed. […] Each sample was analyzed independently in triplicate for each marker.
Primarily, human monocytic (THP-1) cells were induced to the M2-like phenotype using the methods and materials previously described. In particular, THP-1 cells were seeded into 96-well plates at a density of 60,000 cells/well. Cells were differentiated into unpolarized macrophages by 48h incubation with 200 nM PMA followed by 24 hours incubation in fresh RPMI medium. The resulting macrophages were polarized to an M2-like phenotype by incubation with 20 ng/ml IL-4, 20 ng/ml IL-13, and 5 ng/mL IL-6 for 48h. Cultures were maintained at 37° C. in a humidified 5% CO2 incubator.
In addition to the nonconjugated TLR7 agonist, conjugated compounds of the present disclosure were likewise evaluated. […] The cells were subsequently harvested for gene analysis by qPCR and the relative expression of CCL18 (FIG. 14A), CD206 (FIG. 14B), and IL-1β (FIG. 14C) analyzed.
On the technique in general: In qPCR the cycle at which signal appears reflects the starting amount.

For the next series, the system named is healthy mice. The series can be described thus: Plasma cytokine levels in healthy mice after tail vein injection. The series is classed as in vivo. The following applies: healthy mice, tail vein, 10 nmol, 1 hour or 1.5 hours after treatment. As to the method: (FIGS. 20A-C) Measurement of plasma IL-6 (FIG. 20A), IFNα (FIG. 20B) and TNFα (FIG. 20C) (n=3). (FIGS. 20D-F). The effect of drug concentration on plasma levels of IL-6 (FIG. 20D), IFNα (FIG. 20E), and TNFα (FIG. 20F) was determined at 1.5h, 1h, or 1h after treatment, respectively (n=2) (FIG. 20G).
(FIGS. 36C and 36D). The effect of drug on plasma levels of IL-6 (FIG. 36C) and TNFα (FIG. 36D) was determined at 1 hour or 1.5 hours after treatment.

For series [3], the system named is FRβ-expressing macrophages. Put plainly: In vivo folate imaging of organs with OTL38. Further details: species or system C57BL/6 mice. As to the method:
(§1) To evaluate if anti-inflammatory lung macrophages in these mice can be specifically targeted with folate-linked drugs, 10 days after the instillation, 10 nmol (for in vivo imaging) or 100 nmol (for in vivo labeling) of a folate-linked, near infrared fluorescent dye (OTL38) with or without 200-fold excess of FA-glucosamine (a competitor of OTL38) was injected into the tail veins of BM-treated mice and the dye uptake in the major organs was evaluated.
Finally, for the in vivo folate imaging studies, major organs (heart, lung, spleen, liver, small intestine, large intestine, and kidney) were resected and imaged using an AMI live imager (Spectral Instruments Imaging, Tucson, AZ). For in vivo folate receptor labeling studies, lungs of the mice were harvested immediately following euthanasia, digested with a lung dissociation kit (Miltenyi Biotec, Bergisch Gladbach, DE; #130-098-427) as described by gentleMACS Octo Dissociator with Heathers (Miltenyi Biotec, Bergisch Gladbach, DE; #130-096-427) as described by manual and filtered through a 70 μm cell strainer (Miltenyi Biotec, Bergisch Gladbach, DE; #130-098-462). Cells collected in the filtrate were depleted of erythrocytes by […] lysis, washed 2x in cold PBS and labeled for 30 min on ice with antibodies to desired macrophage markers (FITC-CD11b, Biolegend, San Diego, CA; #101205; FE-F4/80, Biolegend, San Diego, CA; #123109). Labeled macrophages were then washed twice in PBS, stained with 7AAD (viability stain) for 15 min and analyzed by flow cytometry using BD Accuri C6 Software (BD Biosciences, San Jose, CA).
FIGS. 7C and 7D show FRβ IHC staining of human IPF lung tissue (FIG. 7C) and healthy human lung tissue (FIG. 7D). […] After 2 hours, mice were sacrificed prior to analysis. […] For in vivo folate receptor labeling studies, lungs of the mice were harvested immediately following euthanasia, digested and then labeled with antibodies to desired macrophages markers (FITC-CD11b, PE-F4/80) and 7AAD (live/dead staining) and analyzed by flow cytometry.

Series [4] has as its system FRβ positive macrophages in the inflamed lung. Put plainly: In vivo folate receptor labeling of lung macrophages, flow cytometry. On the set-up: species or system C57BL/6 mice. As to the method:
as §1
Finally, for the in vivo folate imaging studies, major organs (heart, lung, spleen, liver, small intestine, large intestine, and kidney) were resected and imaged using an AMI live imager (Spectral Instruments Imaging, Tucson, AZ). […] Labeled macrophages were then washed twice in PBS, stained with 7AAD (viability stain) for 15 min and analyzed by flow cytometry using BD Accuri C6 Software (BD Biosciences, San Jose, CA).
FIGS. 7C and 7D show FRβ IHC staining of human IPF lung tissue (FIG. 7C) and healthy human lung tissue (FIG. 7D). […] For in vivo folate receptor labeling studies, lungs of the mice were harvested immediately following euthanasia, digested and then labeled with antibodies to desired macrophages markers (FITC-CD11b, PE-F4/80) and 7AAD (live/dead staining) and analyzed by flow cytometry. […]

“Also recorded” adds a separate entry of the source.

`Nc1nc(C(F)(F)F)cc2c1[nH]c(=O)n2Cc1ccc(NCCN2CCCC(CO)C2)nc1` (stereo not shown) [Compound 3A]: in series [1], the “secretion of CCL18 protein” value is given as “downregulated”.
With `Nc1nc2ncc(CNc3ccc(C(=O)NC(CCC(=O)N[C@@H](CSSCCOC(=O)OCC4CCCN(CCNc5ccc(Cn6c(=O)[nH]c7c(N)nc(C(F)(F)F)cc76)cn5)C4)C(=O)O)C(=O)O)cc3)nc2c(=O)[nH]1` (stereo partly shown) [Compound 3B], the “secretion of CCL18 protein” value in series [1] was “downregulated”. Besides, in series [2], the CCL18 relative expression result was “reduced”, the CD206 relative expression entry is “reduced” and the IL-1β relative expression result is on record as “reduced”.
Turning to `Nc1nc2ncc(CNc3ccc(C(=O)N[C@@H](CCC(=O)NCCOCCOCCOCCOCC4CCCN(CCNc5ccc(Cn6c(=O)[nH]c7c(N)nc(C(F)(F)F)cc76)cn5)C4)C(=O)O)cc3)nc2c(=O)[nH]1` (stereo partly shown) [Compound 3D], in series [1], the “secretion of CCL18 protein” value is given as “downregulated”. Further, in series [2] (CCL18, CD206, IL-1β), the “effectiveness in reducing M2 markers relative to the other compounds” value is “most effective”. In series [2], the CCL18 relative expression result is “reduced”, the CD206 relative expression entry is reported as “reduced” and the IL-1β relative expression entry was “reduced”.
Take `CCOCc1nc2c(N)nc3ccccc3c2n1CC(C)(C)O` [Compound A, reference compound]: the “systemic cytokine release (plasma IL-6, TNFα)” value in the series on healthy mice is given as “stimulated systemic cytokine release”.
For OTL38, in series [3] (BM-treated mice, simultaneous 200-fold excess folate-glucosamine), the “lung accumulation with competitor” value is “nearly quantitative blockade of lung accumulation”. In addition, the “OTL38 fluorescence in organs of healthy mice” value in series [3] (tail vein, 10 nmol, 2 hours) is reported as “only observed in the kidneys”. For the same compound, in series [3] (tail vein, 10 nmol, day 10 post BM, 2 hours), the “accumulation in lungs of BM-treated mice” value was “in the lungs of BM-treated but not healthy mice; also recorded: pronounced accumulation in the fibrotic lungs”. Further, the “folate-dye retention in macrophage-like cells with competitor” value in series [4] (100 nmol plus 200-fold excess folate-glucosamine) is “blocked essentially all folate-dye retention”. For the same compound, in series [4] (fibrotic mice, 100 nmol, tail vein), the “macrophage-like cells showing folate-targeted dye retention” value is “about 22%”.

The record behind these values is patent US20250269036A1, “METHODS FOR ENHANCEMENT OF ENGINEERED CELL THERAPIES IN CANCER TREATMENT” (PURDUE RESEARCH FOUNDATION, priority 2021, published 2025).
